Assay results as given in PMC10784468 (Nature Communications, 2024).
Positions of bridges follow the written chain, without caps; N, C: chain ends. Residues, ends and D or L forms follow the SMILES beside them. *: point of attachment. X1 = O=C(O)c1ccc(-c2c3nc(c(-c4ccc(C(=O)O)cc4)c4ccc([nH]4)c(-c4ccc(C(=O)*)cc4)c4nc(c(-c5ccc(C(=O)O)cc5)c5ccc2[nH]5)C=C4)C=C3)cc1; X2 = O=C(O)C/C(=C/C(=O)*)C(=O)O

Legend:
GPX4 protein = experiment: Microscale Thermophoresis (MST) ligand binding; settings: labelled GPX4
Procedure: Initially, GPX4 was labeled using Protein Labeling Kit RED-NHS according to the manufacturer’s instructions to investigate the binding affinity of Gi-F-CAA, Gi-F and NGi-F-CAA with GPX4 protein. Afterward, the labelled GPX4 protein was incubated with series of Gi-F-CAA, Gi-F and NGi-F-CAA concentration gradients. Finally, the prepared samples were loaded into silica capillaries and measured with Monolish NT.115. Apparent Kd represented the affinity of assemblies rather than a single molecule. Bovine serum albumin (BSA) was used as control for calculating the apparent binding affinity between Gi-F (nanoparticle) to GPX4 protein. Briefly, as the diameter of nanoparticle is proportional to the molecular weight, according to the reported bovine serum albumin (BSA) protein size and molecular weight (7.2 nm, 66.43 KDa), the molecular weight of Gi-F nanoparticle with an average 78 nm size can be calculated to be […]. The monomer amount Gi-F nanoparticle was calculated as […].

Particle size by DLS = type: physicochemical
Procedure: Nano-ZS 3600 (Malvern Instruments, UK) was used to measure the size distribution of the peptide-porphyrin conjugate solutions. The conjugate solutions (40 μM) were incubated at pH 7.4 or pH 6.5 before measurements. An average value was determined by three repeated measurements at 25 °C for each sample. Besides, transmission electron microscopy (TEM, Tecnai G2 20 S-TWIN) was conducted to observe the morphology and diameters of conjugates in aqueous solution, The conjugates (50 μL, 40 μM) were kept in PB solution at pH 7.4 or pH 6.5, which were dropped on copper meshes. After 5 min, unnecessary liquid was removed and the uranyl acetate solution (10 μL) was dropped on this copper mesh to stain the samples for 10 min. Finally, the copper meshes were washed with deionized water, and dried at room temperature for observation.

EJ cells [1] = experiment: Intracellular LPO content (MDA kit); type: cell-based
Procedure: Initially, EJ cells (5 × 10^5) were cultured in 6-well plate with a CO2 incubator overnight at 37 °C. […] Next, EJ cells were collected and washed with PBS for 3 times. Afterwards, the cell lysates were collected by centrifugation at 8000 g for 10 min at 4 °C after lysed by freeze-thaw treatment. Finally, the LPO contents were measured by thiobarbituric acid (TBA) reaction with a Malondialdehyde (MDA) Assay Kit based on the manufacturer’s instructions.

GPX4 = target: T1, GPX4 (Homo sapiens, UniProt P36969); experiment: Intracellular GPX4 activity detection; type: cell-based; design: endogenous in cells; host or cells: EJ bladder cancer cells
T1 sequence (P36969 1-197): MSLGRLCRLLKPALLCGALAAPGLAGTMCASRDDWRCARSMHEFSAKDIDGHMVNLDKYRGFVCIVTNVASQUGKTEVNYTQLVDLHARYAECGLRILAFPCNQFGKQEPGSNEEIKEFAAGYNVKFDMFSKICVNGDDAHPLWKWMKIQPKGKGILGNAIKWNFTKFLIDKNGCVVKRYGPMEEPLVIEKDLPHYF
Procedure: Initially, EJ cells (5 × 10^5) were cultured in 6-well plate with a CO2 incubator overnight at 37 °C. […] Next, EJ cells were collected and washed with PBS for 3 times. Afterwards, the cell lysates were collected by centrifugation at 5000 rpm for 10 min at 4 °C after ultrasonic lysis in an ice bath. Finally, the GPX4 activity were measured with a GPX Assay Kit based on the manufacturer’s instructions.

EJ cells [2] = experiment: Intracellular GSH content detection; type: cell-based
Procedure: Initially, EJ cells (5 × 10^5) were cultured in 6-well plate with a CO2 incubator overnight at 37 °C. […] Next, EJ cells were collected and washed with PBS for 3 times. Afterwards, the cell lysates were collected by centrifugation at 8000 g for 10 min at 4 °C after lysed by freeze-thaw treatment. Finally, the GSH contents were measured with a GSH Assay Kit based on the manufacturer’s instructions.

[3] = Hydrolysis of the peptide-porphyrin conjugates at pH 7.4 and 6.5 (dialysis, HPLC); type: physicochemical; settings: 37 °C, dialysis MWCO 1000 Da, released CAA by HPLC, mean of n = 3
Procedure: In vitro hydrolysis analysis of the peptide-porphyrin conjugates was studied in pH values of 7.4 and 6.5 solutions. 20 mg of peptide-porphyrin conjugate was dissolved in 2 mL pH 7.4 buffer solution, which was then transferred into a dialysis bag (MWCO: 1000 Da) and immersed in 25 mL of different pH buffer solutions at 37 °C with continuous shaking respectively. At fixed time intervals (20 min, 40 min, 1 h, 2 h and 4 h), […] chromatography (HPLC, WATERS Alliance HPLC e2489), and an equal volume of fresh buffer solution was replaced to the system. In order to determine the CAA concentration according to the peak area of the CAA, a standard curve of the CAA was plotted, with the peak area as a function of the concentration. […]

Compound: CC(C)C[C@H](NC(=O)c1ccc(-c2c3nc(c(-c4ccc(C(=O)O)cc4)c4ccc([nH]4)c(-c4ccc(C(=O)O)cc4)c4nc(c(-c5ccc(C(=O)O)cc5)c5ccc2[nH]5)C=C4)C=C3)cc1)C(=O)N[C@@H](CCCCNC(=O)/C=C(/CC(=O)O)C(=O)O)C(=O)N[C@@H](CC(C)C)C(=O)N[C@@H](CCCCN)C(=O)N[C@@H](CC(C)C)C(=O)N[C@@H](CCCCNC(=O)/C=C(/CC(=O)O)C(=O)O)C(=O)NCC(=O)N[C@@H](C)C(=O)N[C@H]1CSSC[C@@H](C(=O)N2CCC[C@H]2C(=O)N[C@H](C(=O)O)C(C)C)NC(=O)[C@@H]2CCCN2C(=O)[C@H](Cc2ccc(O)cc2)NC(=O)[C@H](CC(C)C)NC(=O)[C@@H]2CCCN2C(=O)[C@H](CC(C)C)NC(=O)[C@H](Cc2c[nH]c3ccccc23)NC(=O)[C@H](CC(N)=O)NC1=O [Gi-F-CAA] (X1-LK(X2)LKLK(X2)GACNWLPLYPCPV-OH; disulfide 9-17; C-terminus assumed)
- Fnorm (‰), MST original data (GPX4 protein; ligand concentration 3.05176e-8 (μM)): 933.824 ‰
- Fnorm (‰), MST original data (GPX4 protein; ligand concentration 6.10352e-8 (μM)): 930.278 ‰
- Fnorm (‰), MST original data (GPX4 protein; ligand concentration 1.2207e-7 (μM)): 933.334 ‰
- Fnorm (‰), MST original data (GPX4 protein; ligand concentration 2.44141e-7 (μM)): 933.054 ‰
- Fnorm (‰), MST original data (GPX4 protein; ligand concentration 4.88281e-7 (μM)): 933.313 ‰
- Fnorm (‰), MST original data (GPX4 protein; ligand concentration 9.76563e-7 (μM)): 936.876 ‰
- Fnorm (‰), MST original data (GPX4 protein; ligand concentration 1.95313e-6 (μM)): 940.785 ‰
- Fnorm (‰), MST original data (GPX4 protein; ligand concentration 3.90625e-6 (μM)): 940.492 ‰
- Fnorm (‰), MST original data (GPX4 protein; ligand concentration 7.8125e-6 (μM)): 946.829 ‰
- Fnorm (‰), MST original data (GPX4 protein; ligand concentration 1.5625e-5 (μM)): 943.797 ‰
- Fnorm (‰), MST original data (GPX4 protein; ligand concentration 3.125e-5 (μM)): 948.084 ‰
- Fnorm (‰), MST original data (GPX4 protein; ligand concentration 6.25e-5 (μM)): 945.991 ‰
- Fnorm (‰), MST original data (GPX4 protein; ligand concentration 0.000125 (μM)): 949.08 ‰
- Fnorm (‰), MST original data (GPX4 protein; ligand concentration 0.00025 (μM)): 946.188 ‰
- Fnorm (‰), MST original data (GPX4 protein; ligand concentration 0.0005 (μM)): 949.615 ‰
- Fnorm (‰), MST original data (GPX4 protein; ligand concentration 0.001 (μM)): 948.046 ‰
- particle size (DLS) after incubation at pH 6.5 for 1 h (Particle size by DLS; 40 μM, PBS 0.01 M, pH 6.5, 1 h, 25 °C): 78 ± 11 nm
- particle size (DLS) before incubation (Particle size by DLS; 40 μM, PBS 0.01 M, pH 6.5, before incubation, 25 °C): 13 ± 3 nm
- particle size change (DLS) at pH 7.4 (Particle size by DLS; 40 μM, PBS 0.01 M, pH 7.4): no obvious changes
- size (DLS) at pH 7.4 (Particle size by DLS; pH 7.4, peer review response): about 11 ± 2 nm
- Relative MDA levels (EJ cells [1]; pH=6.5, replicate #1): 4.36
- Relative MDA levels (EJ cells [1]; pH=6.5, replicate #2): 4.44
- Relative MDA levels (EJ cells [1]; pH=6.5, replicate #3): 4.68
- Relative MDA levels (EJ cells [1]; pH=7.4, replicate #1): 1.72
- Relative MDA levels (EJ cells [1]; pH=7.4, replicate #2): 1.84
- Relative MDA levels (EJ cells [1]; pH=7.4, replicate #3): 2.24
- Relative activity of GPX4 (GPX4; EJ cells, 8 h, pH 6.5, 40 μM, PBS group normalized as 1, #1): 0.12
- Relative activity of GPX4 (GPX4; EJ cells, 8 h, pH 6.5, 40 μM, PBS group normalized as 1, #2): 0.09
- Relative activity of GPX4 (GPX4; EJ cells, 8 h, pH 6.5, 40 μM, PBS group normalized as 1, #3): 0.17
- Relative activity of GPX4 (GPX4; EJ cells, 8 h, pH 7.4, PBS group normalized as 1, #1): 0.62
- Relative activity of GPX4 (GPX4; EJ cells, 8 h, pH 7.4, PBS group normalized as 1, #2): 0.73
- Relative activity of GPX4 (GPX4; EJ cells, 8 h, pH 7.4, PBS group normalized as 1, #3): 0.69
- Relative activity of GPX4 (GPX4; pH=6.5, replicate #1): 0.21
- Relative activity of GPX4 (GPX4; pH=6.5, replicate #2): 0.24
- Relative activity of GPX4 (GPX4; pH=6.5, replicate #3): 0.19
- Relative activity of GPX4 (GPX4; pH=7.4, replicate #1): 0.76
- Relative activity of GPX4 (GPX4; pH=7.4, replicate #2): 0.63
- Relative activity of GPX4 (GPX4; pH=7.4, replicate #3): 0.6
- intracellular GSH levels (EJ cells [2]; EJ cells, pH 6.5, 40 μM, 8 h): substantial reduction of GSH levels
- Relative GSH levels (EJ cells [2]; pH=6.5, replicate #1): 0.188
- Relative GSH levels (EJ cells [2]; pH=6.5, replicate #2): 0.178
- Relative GSH levels (EJ cells [2]; pH=6.5, replicate #3): 0.129
- Relative GSH levels (EJ cells [2]; pH=7.4, replicate #1): 0.657
- Relative GSH levels (EJ cells [2]; pH=7.4, replicate #2): 0.628
- Relative GSH levels (EJ cells [2]; pH=7.4, replicate #3): 0.54
- Hydrolysis of CAA (%) ([3]; pH 6.5 buffer, 0 min): 0%
- Hydrolysis of CAA (%) ([3]; pH 6.5 buffer, 20 min): 17.6%
- Hydrolysis of CAA (%) ([3]; pH 6.5 buffer, 40 min): 43.7%
- Hydrolysis of CAA (%) ([3]; pH 6.5 buffer, 60 min): 53.6%
- Hydrolysis of CAA (%) ([3]; pH 6.5 buffer, 120 min): 56.9%
- Hydrolysis of CAA (%) ([3]; pH 6.5 buffer, 240 min): 57.5%
- Hydrolysis of CAA (%) ([3]; pH 7.4 buffer, 0 min): 0%
- Hydrolysis of CAA (%) ([3]; pH 7.4 buffer, 20 min): 3.1%
- Hydrolysis of CAA (%) ([3]; pH 7.4 buffer, 40 min): 10.9%
- Hydrolysis of CAA (%) ([3]; pH 7.4 buffer, 60 min): 12.1%
- Hydrolysis of CAA (%) ([3]; pH 7.4 buffer, 120 min): 13.1%
- Hydrolysis of CAA (%) ([3]; pH 7.4 buffer, 240 min): 14.3%
